For the test, the target named is Aldehyde dehydrogenase (Saccharomyces cerevisiae). Kind of test: In vitro inhibition against yeast Aldehyde dehydrogenase.

Where only a bound is given, the exact number is not on record here.

The compound `CC(=O)ON1C(=O)c2ccccc2S1(=O)=O` [Acetic acid 1,1,3-trioxo-1,3-dihydro-1lambda*6*-benzo[d]isothiazol-2-yl ester] gave a concentration for half-maximal inhibition (IC50) of 240 µM.
In the case of `O=C1c2ccccc2S(=O)(=O)N1O` [2-Hydroxy-1,1-dioxo-1,2-dihydro-1lambda*6*-benzo[d]isothiazol-3-one], the half-maximal inhibitory concentration (IC50) is above 1000 µM.

A word on the IC50: it is the midpoint of a concentration-inhibition curve. Read a high IC50 as weaker potency.

(Values after BindingDB's records for doi:10.1021/jm00011a005 (University of Minnesota, 1995).)
